# Measurements from BindingDB's records for doi:10.1021/acs.jmedchem.1c00019 (National Center For Advancing Translational Sciences, 2021).
# Where “and” joins values, the source holds several entries; their conditions need not be identical. Equal entries are not always repeated.
# Experiments:
# [1] = target: T1, Isocitrate dehydrogenase [NADP] cytoplasmic (Homo sapiens, UniProt O75874); test: Inhibition of IDH1 R132C mutant (unknown origin) assessed as reduction in NADPH consumption using alpha-KG as substrate incubated for 5 mins by diaphorase/resazurin-coupled system
# Target sequence in this assay (O75874 2-414 R132C limits assumed): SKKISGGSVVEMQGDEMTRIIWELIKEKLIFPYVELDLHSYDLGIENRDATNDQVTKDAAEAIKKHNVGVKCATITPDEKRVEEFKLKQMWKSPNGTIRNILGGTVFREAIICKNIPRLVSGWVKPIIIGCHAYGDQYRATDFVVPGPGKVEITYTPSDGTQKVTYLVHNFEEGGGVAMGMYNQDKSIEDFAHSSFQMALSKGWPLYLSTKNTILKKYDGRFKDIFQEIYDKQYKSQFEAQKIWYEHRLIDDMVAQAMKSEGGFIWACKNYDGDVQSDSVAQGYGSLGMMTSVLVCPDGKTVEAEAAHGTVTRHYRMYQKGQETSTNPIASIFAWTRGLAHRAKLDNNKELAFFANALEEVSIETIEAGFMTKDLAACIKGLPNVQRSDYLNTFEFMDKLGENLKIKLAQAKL
# [2] = target: T1, Isocitrate dehydrogenase [NADP] cytoplasmic; test: Inhibition of IDH1 R132H mutant (unknown origin) assessed as reduction in NADPH consumption using alpha-KG as substrate incubated for 5 mins by diaphorase/resazurin-coupled system
# Target sequence in this assay (O75874 2-414 R132H limits assumed): as the sequence (O75874 2-414 R132C limits assumed) above, with C131H counted along it
IC50 [1],IC50 [2],Compound
100 nM and 72 nM,114 nM and 81 nM,CCc1ccc(Cl)cc1-n1c(C=C(C)C)c(C(=O)N2CCNCC2)cc(-c2nc(-c3ccc(Cl)cc3)cs2)c1=O
130 nM,–,CCc1ccc(OC)cc1-n1c(C=C(C)C)c(C(=O)N2CCNCC2)cc(-c2nc(-c3ccc(Cl)cc3)cs2)c1=O
